This note sets out measurements from PubChem BioAssay AID652275 (Broad Institute, 2013).

Inconclusive results are not listed. Activity calls are given as the source filed them. No rule for the calls is given here.

System in the first experiment: not listed separately
As to the kind of experiment: T. cruzi growth inhibition in host cells, dose response, cell-based, plate reader, dry powder, set 2 (AID 652275). The settings on record: T. cruzi proliferation in host cells, plate reader; at 16 µM (top of the series).
With `COCCNC(=O)c1cc2c(c(-c3cccc(C#CCN(C)C)c3)n1)[C@H](CCO)N(S(=O)C(C)(C)C)C2` (stereo partly specified), the activity change, negative = inhibition is -35.9% (inactive).
Regarding `CN(C)CC#Cc1cccc(-c2nc(C(=O)N3CCN(C)CC3)cc3c2[C@@H](CCO)N(S(=O)C(C)(C)C)C3)c1` (stereo partly specified), the activity change, negative = inhibition is -4.18% (inactive).
The same measure, in the same setting: to `CN(C)CC#Cc1cccc(-c2nc(C(=O)N3CCN(C)CC3)cc3c2[C@H](CCO)N(S(=O)C(C)(C)C)C3)c1` (stereo partly specified) belongs 1.54% (inactive); to `CN(C)CC#Cc1cccc(-c2nc(C(=O)O)cc3c2[C@H](CCO)N(S(=O)C(C)(C)C)C3)c1` (stereo partly specified), -23.9% (inactive).
Still for that read-out and setting: to `C[C@@H]1CN([C@@H](C)CO)C(=O)c2cccc(NC(=O)c3ccncc3)c2O[C@H]1CN(C)C` belongs 18.7% (inactive); to `CC(C)N1C[C@@H](C)[C@H](CN(C)C(=O)OC(C)(C)C)Oc2c(C#N)cccc2C1=O`, -37% (inactive).
Still for that read-out and setting: to `CC(C)N1C[C@@H](CN)Oc2c(NC(=O)c3ccncc3)cccc2C1=O` belongs -29% (inactive); to `CC(C)N1C[C@@H](C)[C@H](CN(C)Cc2ccc(Oc3ccccc3)cc2)Oc2c(C(=O)O)cccc2C1=O`, -33.8% (inactive); to `C[C@@H](CO)N1CC[C@H](CNC(=O)OC(C)(C)C)Oc2c(cccc2[N+](=O)[O-])C1=O`, -13.9% (inactive).
Consider `CC(C)N1C[C@@H](C)[C@H](CN(C)Cc2ccc(OCCCC(F)(F)C(F)(F)C(F)(F)C(F)(F)C(F)(F)C(F)(F)C(F)(F)C(F)(F)F)cc2)Oc2c(NC(=O)c3ccncc3)cccc2C1=O`, for which the activity change, negative = inhibition was 33.7% (inactive).

The next experiment deals with T. cruzi proliferation in host cells, plate reader. The description is as above.
Details: not given
In general, AC50 refers to the midpoint of the concentration-response curve, whichever way the signal moves. Consider `C[C@@H]1CN([C@@H](C)CO)C(=O)c2cccc(NC(=O)c3ccncc3)c2O[C@H]1CN(C)Cc1ccc(Oc2ccccc2)cc1`, for which the AC50 was 1.11 nM.
